Ten compounds from ChEMBL document CHEMBL1201862, “PubChem BioAssay data set” (2004) can be followed below.

Test systems include CCRF-CEM; TK-10; MCF7; MDA-MB-435; ACHN; RPMI-8226; T47D; OVCAR-3; NCI-H226; SNB-19; LOX IMVI; M14; K562; HL-60; SK-OV-3; IGROV-1; HOP-62; SK-MEL-2; MOLT-4; DU-145.
Common to all, as to test: NCI anticancer screen, dose series, 48 h

Each structure is given as a SMILES string.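 In this assay, cells in 96-well plates receive the compound at five concentrations for 48 hours. Endpoints are linearly interpolated between the surrounding concentrations. Abbreviation: GI50, concentration required for 50% inhibition of growth.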 Active and inactive are the calls of the source. No stated cut-off is given here; in the data, active = GI50 up to about 1.1 µM and inactive = higher.

Regarding `COC(=O)/C=C/c1ccccc1N=[S@](C)(=O)c1ccc(C)cc1`, the GI50 is 11.5 µM (inactive) in the experiment with CCRF-CEM; 22.4 µM (inactive) in the experiment with TK-10; 13.4 µM (inactive) in the experiment with MCF7; 3.54 µM (inactive) in the experiment on MDA-MB-435; 32.6 µM (inactive) with ACHN; 18 µM (inactive) in the experiment with RPMI-8226. Also, the GI50 in the experiment with T47D is 31.8 µM (inactive); in the experiment with OVCAR-3, 14.6 µM (inactive); with NCI-H226, 36.1 µM (inactive); in the experiment with SNB-19, 19.1 µM (inactive); in the experiment with LOX IMVI, 23.5 µM (inactive); with M14, 12.6 µM (inactive). The GI50 is 4.09 µM (inactive) with K562; 2.32 µM (inactive) in the experiment with HL-60; 30.3 µM (inactive) with SK-OV-3; 18 µM (inactive) in the experiment on IGROV-1; 24.2 µM (inactive) in the experiment with HOP-62; 21.8 µM (inactive) in the experiment on SK-MEL-2. Moreover, the GI50 in the experiment with MOLT-4 was 19.8 µM (inactive); in the experiment on DU-145, 29.1 µM (inactive).
Regarding `CCCCC1CCCCCCc2[nH]c(/C=C3\N=C(c4ccc[nH]4)C=C3OC)cc21` (stereo not given), the GI50 is < 0.01 µM (active) with CCRF-CEM; 0.338 µM (active) with TK-10; < 0.0139 µM (active) in the experiment with MCF7; < 0.01 µM (active) with MDA-MB-435; < 0.0111 µM (active) in the experiment with ACHN; < 0.01 µM (active) with RPMI-8226. Further, the GI50 in the experiment on T47D was < 0.01 µM (active); in the experiment on OVCAR-3 it was < 0.01 µM (active); in the experiment with NCI-H226 it was 0.205 µM (active); in the experiment on SNB-19, 0.151 µM (active); with LOX IMVI, < 0.01 µM (active); with M14, 0.0136 µM (active). Also, the GI50 in the experiment with K562 was < 0.01 µM (active); in the experiment with HL-60, < 0.01 µM (active); in the experiment with SK-OV-3 it was 0.326 µM (active); with IGROV-1 it was < 0.0188 µM (active); in the experiment with HOP-62 it was 0.0181 µM (active); in the experiment with SK-MEL-2, < 0.0124 µM (active). The GI50 was < 0.01 µM (active) in the experiment on MOLT-4 and < 0.0109 µM (active) in the experiment on DU-145.
On to `CCN1CCC(O)(/C=C/c2ccc(C(C)C)cc2)C(C(=O)/C=C/c2ccc(C(C)C)cc2)C1` (stereo not given), for which the GI50 in the experiment with CCRF-CEM is 1.16 µM (inactive); with TK-10 it was 2.34 µM (inactive); in the experiment with MCF7 it was 2.46 µM (inactive); with MDA-MB-435, 2.96 µM (inactive); in the experiment with ACHN, 1.75 µM (inactive); in the experiment with RPMI-8226, 0.697 µM (active). The GI50 in the experiment with T47D is 2.35 µM (inactive); with OVCAR-3, 2.84 µM (inactive); with NCI-H226, 2.82 µM (inactive); in the experiment with SNB-19, 3.8 µM (inactive); in the experiment on LOX IMVI, 0.895 µM (active); in the experiment on M14, 3.1 µM (inactive). Further, the GI50 in the experiment with K562 is 2.72 µM (inactive); in the experiment with HL-60 it was 2.98 µM (inactive); in the experiment on SK-OV-3, 14 µM (inactive); with IGROV-1 it was 2.05 µM (inactive); with HOP-62, 3.52 µM (inactive); with SK-MEL-2, 3.08 µM (inactive). In addition, the GI50 in the experiment on MOLT-4 was 1.59 µM (inactive); in the experiment on DU-145 it was 3.34 µM (inactive).
Take `CC(=O)NNc1nc(C)c(C(/C=C/c2ccc3c(c2)OCO3)=N/Nc2ccccc2)s1`: the GI50 in the experiment with CCRF-CEM, with TK-10, in the experiment with MCF7, in the experiment on MDA-MB-435, in the experiment on ACHN and in the experiment with RPMI-8226 was > 100 µM (inactive) in each case. For the same compound, the GI50 in the experiment with T47D, with OVCAR-3, in the experiment with NCI-H226, in the experiment on SNB-19, with LOX IMVI and in the experiment on M14 was > 100 µM (inactive) throughout. In addition, the GI50 in the experiment with K562, in the experiment on HL-60, in the experiment with SK-OV-3, in the experiment with IGROV-1, with HOP-62 and in the experiment with SK-MEL-2 was > 100 µM (inactive) in each case. Moreover, the GI50 in the experiment with MOLT-4 and with DU-145 was > 100 µM (inactive) each time.
Regarding `CC(C)(C)c1cc(C(=O)/C=C/C=C/c2ccccc2)cc(C(C)(C)C)c1O`, the GI50 in the experiment on CCRF-CEM was 3.15 µM (inactive); in the experiment with TK-10 it was 19.5 µM (inactive); in the experiment on MCF7 it was 8.3 µM (inactive); in the experiment on MDA-MB-435, 11.2 µM (inactive); in the experiment on ACHN it was 29.2 µM (inactive); in the experiment with RPMI-8226, 6.97 µM (inactive). The GI50 in the experiment on T47D is 28.9 µM (inactive); in the experiment on OVCAR-3, 27.4 µM (inactive); in the experiment on NCI-H226 it was 24.3 µM (inactive); with SNB-19 it was 22.3 µM (inactive); in the experiment on LOX IMVI, 19.8 µM (inactive); in the experiment with M14 it was 17.2 µM (inactive). The GI50 in the experiment with K562 is 7.31 µM (inactive); with HL-60, 1.55 µM (inactive); with SK-OV-3, 31.8 µM (inactive); in the experiment on IGROV-1 it was 33.3 µM (inactive); in the experiment with HOP-62, 41.2 µM (inactive); with SK-MEL-2, 11.7 µM (inactive). Besides, the GI50 was 12.8 µM (inactive) in the experiment with MOLT-4 and 29.4 µM (inactive) in the experiment with DU-145.
Consider `CC(NC1=NCCO1)c1ccco1` (stereo not given), for which the GI50 in the experiment with CCRF-CEM, in the experiment with TK-10, in the experiment with MCF7, in the experiment with MDA-MB-435, in the experiment with ACHN and in the experiment on RPMI-8226 was > 100 µM (inactive) in each case. The GI50 with T47D, in the experiment on OVCAR-3, in the experiment with NCI-H226, with SNB-19, in the experiment on LOX IMVI and in the experiment on M14 was > 100 µM (inactive) throughout. Besides, the GI50 was > 100 µM (inactive) with K562; > 100 µM (inactive) in the experiment on HL-60; > 100 µM (inactive) in the experiment with SK-OV-3; > 100 µM (inactive) in the experiment with IGROV-1; > 100 µM (inactive) in the experiment on HOP-62; 60.4 µM (inactive) with SK-MEL-2. Also, the GI50 with MOLT-4 and with DU-145 was > 100 µM (inactive) each time.
On to `O=C1c2cc(O)c(O)cc2O[C@H](c2ccc(O)c(O)c2)[C@H]1O`, for which the GI50 was 68.4 µM (inactive) in the experiment on CCRF-CEM; > 100 µM (inactive) in the experiment with TK-10; > 100 µM (inactive) in the experiment on MCF7; > 100 µM (inactive) in the experiment on MDA-MB-435; > 100 µM (inactive) in the experiment with ACHN; > 100 µM (inactive) with RPMI-8226. Also, the GI50 in the experiment on T47D is > 100 µM (inactive); in the experiment on OVCAR-3 it was > 100 µM (inactive); in the experiment on NCI-H226, 85.1 µM (inactive); in the experiment on SNB-19, > 100 µM (inactive); with LOX IMVI, > 100 µM (inactive); in the experiment on M14, > 100 µM (inactive). The GI50 in the experiment with K562 is > 100 µM (inactive); in the experiment on HL-60 it was > 100 µM (inactive); in the experiment on SK-OV-3 it was > 100 µM (inactive); in the experiment with IGROV-1, > 100 µM (inactive); with HOP-62, 80.7 µM (inactive); in the experiment on SK-MEL-2, > 100 µM (inactive). The GI50 in the experiment with MOLT-4 and with DU-145 was > 100 µM (inactive) each time.
In the case of `N#CC1(C#N)C2C=CC(C3CC=CC32)C1(C#N)C#N` (stereo not given), the GI50 in the experiment on CCRF-CEM is 1.27 µM (inactive); in the experiment with TK-10, 2 µM (inactive); with MCF7, 6.52 µM (inactive); with MDA-MB-435, 7.16 µM (inactive); with ACHN, 5.12 µM (inactive); in the experiment on RPMI-8226, 2.35 µM (inactive). For the same compound, the GI50 in the experiment with T47D was 3.38 µM (inactive); with OVCAR-3 it was 2.45 µM (inactive); in the experiment on NCI-H226, > 50 µM (inactive); in the experiment on SNB-19 it was > 50 µM (inactive); with LOX IMVI, 8.59 µM (inactive); in the experiment on M14 it was 2.01 µM (inactive). In addition, the GI50 was 2.4 µM (inactive) in the experiment with K562; 1.12 µM (inactive) with HL-60; 45 µM (inactive) with SK-OV-3; 9.33 µM (inactive) with IGROV-1; 12.9 µM (inactive) with HOP-62; 13.1 µM (inactive) in the experiment on SK-MEL-2. Also, the values for the GI50 in the experiment with MOLT-4 and in the experiment on DU-145 were 1.48 µM (inactive) and 9.55 µM (inactive), respectively.
Turning to `O=C(OCc1ccccc1)N(CCCCN(CCCNC(=O)C(F)(F)F)C(=O)OCc1ccccc1)CCCNC(=O)C(F)(F)F`, the GI50 in the experiment with CCRF-CEM is > 100 µM (inactive); in the experiment with TK-10, > 100 µM (inactive); in the experiment with MCF7, > 100 µM (inactive); in the experiment on MDA-MB-435 it was > 100 µM (inactive); with ACHN, 23.9 µM (inactive); in the experiment on RPMI-8226, > 100 µM (inactive). Further, the GI50 is > 100 µM (inactive) in the experiment with T47D; > 100 µM (inactive) with OVCAR-3; > 100 µM (inactive) in the experiment on NCI-H226; 4.2 µM (inactive) in the experiment with SNB-19; > 100 µM (inactive) with LOX IMVI; > 100 µM (inactive) in the experiment on M14. For the same compound, the GI50 with K562, with HL-60, in the experiment with SK-OV-3, in the experiment with IGROV-1, in the experiment on HOP-62 and in the experiment with SK-MEL-2 was > 100 µM (inactive) each time. For the same compound, the values for the GI50 in the experiment on MOLT-4 and with DU-145 were 8.87 µM (inactive) and > 100 µM (inactive), respectively.
For `CCCCCCOc1ccc(C(=O)N(C)O)cc1`, the GI50 was 1.85 µM (inactive) in the experiment with CCRF-CEM; 46.3 µM (inactive) with TK-10; 28.9 µM (inactive) in the experiment on MCF7; 23.4 µM (inactive) in the experiment on MDA-MB-435; 6.01 µM (inactive) in the experiment with ACHN; 7.55 µM (inactive) in the experiment with RPMI-8226. For the same compound, the GI50 in the experiment on T47D is 23.6 µM (inactive); in the experiment on OVCAR-3, 9.68 µM (inactive); in the experiment on NCI-H226, 13.5 µM (inactive); in the experiment with SNB-19 it was 24.2 µM (inactive); with LOX IMVI, 7.52 µM (inactive); in the experiment with M14, 12.6 µM (inactive). In addition, the GI50 with K562 was 8.83 µM (inactive); in the experiment with HL-60, 4.01 µM (inactive); in the experiment with SK-OV-3 it was 18.8 µM (inactive); in the experiment on IGROV-1 it was 11.5 µM (inactive); in the experiment with HOP-62, 11 µM (inactive); with SK-MEL-2, 32.4 µM (inactive). Also, the GI50 in the experiment with MOLT-4 is 4.97 µM (inactive); in the experiment on DU-145, 16.5 µM (inactive).
